For data set [1] the following is noted: co-micronized with sugar alcohols, from entacapone, levodopa, carbidopa formulation vs not co-micronized.
The conditions of data set [2]: background description; cited from earlier work.
For data set [3] the following is noted: background description; cited from earlier work. The source holds these as a separate data set.

`CCN(CC)C(=O)/C(C#N)=C/c1cc(O)c(O)c([N+](=O)[O-])c1` [Entacapone, (E)-2-cyano-3-(3,4-dihydroxy-5-nitrophenyl)-N,N-diethyl-2-propenamide]: in data set [1], the “Change in percent drug release of entacapone” value was “significant increase”. Also, the “Biopharmaceutics Classification system class” value in data set [2] is listed as “class IV”.

Take `C[C@@](Cc1ccc(O)c(O)c1)(NN)C(=O)O` [Carbidopa, (−)-L-(α-hydrazino-(α-methyl-β-(3,4-dihydroxybenzene)propanoic acid monohydrate]: the Solubility in water entry in data set [3] was “slightly soluble”.

Take `N[C@@H](Cc1ccc(O)c(O)c1)C(=O)O` [Levodopa, (−)-L-α-amino-β-(3,4-dihydroxybenzene) propanoic acid]: the Solubility in water entry in data set [3] is reported as “slightly soluble”.

The record behind these values is patent publication US9089485B2, “Pharmaceutical compositions of entacapone, levodopa and carbidopa with improved bioavailability” (Wockhardt Ltd., priority 2008, dated 2015).
